Patent US7045146B2, “Templating of solid particles by polymer multilayers” (Max-Planck-Gesellschaft zur Forderung der Wissenschaften …, priority 2000, dated 2006)

Tests used:
Format in all cases: physicochemical
[1] = Release experiments: removal of the microcrystal core by ethanol, fluorescence of supernatant; settings: control without polyelectrolyte multilayer
Experimental: Direct proof that a polymer multilayer cage encapsulated the microcrystals was obtained by removing the templated core. The release behaviour of the pyrene and fluoresceine diacetate molecules, from dissolution of the core templates, through the polymer capsule wall can be investigated by using fluorescence spectroscopy. Following centrifugation of the coated microcrystal suspensions that were exposed to ethanol, the supernatant was assessed for either pyrene or fluoresceine at regular time intervals.
12 mL of solvent (ethanol or ethanol/water mixtures) were dispensed into 15 mL tubes. 0.1 mL of the coated microcrystal suspension of Example 3 was then quickly added to each tube and after defined times (2, 5, 10 min etc.) the suspension was centrifuged at 3000 g for 5 min. A portion of the supernatant was removed and tested for the presence of PYR of FDA by fluorescence. For PYR, the fluorescence emission intensity of the supernatant was measured directly by using an excitation wavelength (λex) of 350 nm and monitoring the emission (λem) at 373 nm. FDA was first hydrolyzed into fluorescein either by treatment with esterase or dilute base prior to fluorescence measurement (λex=492 nm, λem=513 nm). As control experiments, the release characteristics of uncoated particles was also studied as outlined above.

[2] = Microelectrophoresis: zeta-potential of coated organic microcrystals
Experimental: The layer-by-layer assembly of polyelectrolytes onto FDA or PYR microcrystals was carried out as follows: 50 mg of finely milled core particles (FDA or PYR) were first thoroughly mixed with 12 mL of 0.2–0.4 wt % of the dispersing agent (ionic surfactant, lipid or charged polymer). Crystalline fluorescein diacetate or pyrene can be milled to fine particles using e.g. a mortar and pestle. However, also advanced ball milling procedures can be used.
The crystals were suspended by their immediate sonication for 5 min. The suspension was allowed to stand for 30 min, thus allowing the larger crystals to sediment, or gently centrifuged. The turbid white supernatant was then extracted, centrifuged and washed several times, and finally resuspended in water.
The resulting microcrystal particles were then layer-by-layer coated with PSS and PAH.^18 When positively charged surfactants or DPPC were used as the first layer, 1 mL of PSS solution (5 mg mL^−1, containing 0.5 M NaCl) was added first. PAH solution (1 mL of 5 mg mL^−1, containing 0.5 M NaCl) was added first when PSS or SDS were adsorbed onto the microcrystals. After an adsorption time of 15 min for PAH or PSS adsorption, the suspension was centrifuged at 3000 g for 5 min. The supernatant was then removed and three cycles of water washing and redispersing were applied to remove the excess unadsorbed polyelectrolyte in solution. Subsequent polyelectrolyte layers, bearing an opposite charge to that already adsorbed on the particle, were deposited in identical fashion to produce multilayer-coated microcrystals. In some cases, the fluorescently labeled polyelectrolyte, PAH-FITC, was applied (as a 2 mg mL^−1 solution containing 0.5 M NaCl) to form a fluorescent layer on the microcrystal surface.
The microelectrophoretic mobility of coated organic microcrystals was measured with a malvern Zetasizer 4 by taking the average of 5 measurements at the stationary level. The mobilities (μ) were converted to the electrophoretic potentials (ζ) using the Smoluchowski relation ζ=μη/ε, where η and ε are the viscosity and permittivity of the solution, respectively.^25 All measurements were performed on microcrystals re-dispersed in air-equilibrated pure water (pH ˜5.6).

Solubility in water = assay: Solubility in water
[3] = SDS-dispersed crystals, layer No. 2, coating PAH
[4] = SDS-dispersed crystals, layer No. 3, coating PSS
[5] = SDS-dispersed crystals, layer No. 4, coating PAH
[6] = SDS-dispersed crystals, layer No. 5, coating PSS
[7] = SDS-dispersed crystals, layer No. 6, coating PAH-FTTC
[8] = crystals, layer No. 1, coating SDS detergent, pure water pH ~5.6

solubility in water (Solubility in water)	ζ-potential ([2]; SDS dispersed crystals (FIG. 2a)) [mV]	ζ-potential ([2]; microcrystals dispersed with DPPC (FIG. 2b))	ζ-potential ([2]; microcrystals exposed to PSS (FIG. 2b)) [mV]	SMILES	time for removal of core upon addition of ethanol ([1]; DDDAB-dispersed (surfactant-coated) microcrystals) [min]	time for removal of core upon addition of ethanol ([1]; PSS-dispersed (PSS-coated) microcrystals) [min]	Zeta-potential [2, 3]	Zeta-potential [2, 4] [mV]	Zeta-potential [2, 5]	Zeta-potential [2, 6] [mV]	Zeta-potential [2, 7]	ζ-potential ([2]; crystals exposed to DDDAB (FIG. 2a))	Zeta-potential [2, 8] [mV]
				c1cc2ccc3cccc4ccc(c1)c2c34 [Pyrene]	≤ 30	≤ 30	+59 mV	−46.5	+54.3 mV	−37.2	+47.3 mV	+50 mV	−68.5
very low solubility in water	−50	+20 mV	−40	CC(=O)Oc1ccc2c(c1)Oc1cc(OC(C)=O)ccc1C21OC(=O)c2ccccc21 [Fluorescein diacetate, fluorescein diacetate]			+42.9 mV	−37.7	+51.5 mV	−42.2	+48.2 mV		-85
